The results in this text go back to ChEMBL document CHEMBL2029340 (J Med Chem, 2012).

The term IC50 denotes the concentration that inhibits the measured activity by half. Usually CC50 stands for the concentration giving 50% cytotoxicity. The low end stands for harm at low concentration, the high end for better tolerance by the cells.

Molecules are shown by their SMILES. Activity calls are given as the source filed them. No cut-off for these calls is given here. Some results are limits rather than exact numbers.

Data set [1] concerns Influenza A virus. Description: Antiviral activity against Influenza A virus […] infected in MDCK cells assessed as inhibition of virus-induced cytopathic effects after 3 days by CCK-8 assay. The settings on record: 72 h. It is filed as functional, organism-based.
For data set [2], the system named is Influenza A virus. In words: Antiviral activity against Influenza A virus A/HK/8/68(H3N2) infected in MDCK cells assessed as inhibition of virus-induced cytopathic effects after 3 days by CCK-8 assay. It is filed as functional, organism-based. Particulars: 72 h. In general terms: Cytopathic effects are the visible damage that an infection or toxin causes in cultured cells.

For data set [3], the system named is Influenza A virus. In words: Antiviral activity against Influenza A virus A/Mal/302/54 (H1N1) infected in MDCK cells assessed as inhibition of virus-induced cytopathic effects after 3 days by CCK-8 assay. It is filed as functional, organism-based. Particulars: 72 h.
A short description of data set [4]: Cytotoxicity against MDCK cells after 3 days by CCK-8 assay. The class given is cell-based, Canis lupus familiaris. Particulars: dog.
In data set [5] the test system is Influenza A virus. Description: Antiviral activity against Influenza A virus A/Brisbane/10/2007 (H3N2) infected in MDCK cells assessed as inhibition of virus-induced cytopathic effects after 3 days by CCK-8 assay. Particulars: 72 h. The class given is functional, organism-based.
The test system of data set [6] is Influenza A virus. Description: Antiviral activity against Influenza A virus A/Weiss/43 (H1N1) infected in MDCK cells assessed as inhibition of virus-induced cytopathic effects after 3 days by CCK-8 assay. It is filed as functional, organism-based, Influenza A virus (A/Weiss/1943(H1N1)). The settings on record: 72 h.
Data set [7] has as its system Influenza A virus. In words: Antiviral activity against Influenza A virus A/udorn/1972 (H3N2) infected in MDCK cells assessed as inhibition of virus-induced cytopathic effects after 3 days by CCK-8 assay. It is filed as functional, organism-based. Particulars: 72 h.
Data set [8] has as its system Influenza A virus. Description: Antiviral activity against Influenza A virus A/Guangdong/96 (H9N2) infected in MDCK cells assessed as inhibition of virus-induced cytopathic effects after 3 days by CCK-8 assay. It is filed as functional, organism-based. Particulars: 72 h.
In data set [9] the test system is Influenza A virus. In words: Antiviral activity against Influenza A virus A/Guangzhou/2009 (H1N1) infected in MDCK cells assessed as inhibition of virus-induced cytopathic effects after 3 days by CCK-8 assay. The class given is functional, organism-based. Particulars: 72 h.
Data set [10] deals with Influenza A virus. In words: Antiviral activity against Influenza A virus A/WSN/33 (H1N1) infected in MDCK cells assessed as inhibition of nucleoprotein accumulation in nucleus at 10 uM after 4 hrs by fluorescent microscopy. Particulars: A/WSN/1933(H1N1). The class given is functional, organism-based.

Turning to `Cc1onc(-c2ccccc2)c1C(=O)N1CCN(c2ccc([N+](=O)[O-])cc2Cl)CC1` [NUCLEOZIN], the IC50 stood at 1.59 µM with Influenza A virus [1]; 1.08 µM with Influenza A virus [2]; 0.52 µM in the data set on Influenza A virus [3]; 12.4 µM in the data set with Influenza A virus [5]; 0.2 µM with Influenza A virus [6]; 0.34 µM in the data set with Influenza A virus [7]. The IC50 was 3.87 µM in the data set with Influenza A virus [8] and 0.54 µM with Influenza A virus [9]. This molecule came in with a CC50 at 72 h in data set [4] of 15.9 µM.

For the molecule `O=C(c1ccccc1-c1ccccc1)N1CCN(c2ccc([N+](=O)[O-])cc2Cl)CC1`, the IC50 in the data set with Influenza A virus [2] was determined as 7.61 µM.

In the case of `CCc1nnn(-c2ccccc2OC)c1C(=O)N1CCN(c2ccc([N+](=O)[O-])cc2Cl)CC1`, in the data set with Influenza A virus [2], the concentration for half-maximal inhibition (IC50) is over 50 µM. In data set [4], the CC50 at 72 h is over 100 µM.

For the molecule `COc1ccccc1-n1nnc(C)c1C(=O)N1CCN(c2ccccc2)CC1`, the IC50 in the data set with Influenza A virus [2] was over 50 µM. The molecule also came in with a CC50 at 72 h in data set [4] of over 100 µM.

Regarding `COc1ccccc1-n1nncc1C(=O)N1CCN(c2ccc([N+](=O)[O-])cc2Cl)CC1`, the IC50 in the data set with Influenza A virus [2] was over 50 µM. The CC50 at 72 h in [4] was over 100 µM.

`COc1ccc(-n2nnc(C)c2C(=O)N2CCN(c3ccc([N+](=O)[O-])cc3Cl)CC2)cc1`: in the data set on Influenza A virus [2], the IC50 is 14.7 µM. The cytotoxic concentration (CC50) at 72 h in [4] was over 100 µM.

For `COc1cc([N+](=O)[O-])ccc1N1CCN(C(=O)c2c(C)nnn2-c2ccccc2OC)CC1`, the IC50 in the data set on Influenza A virus [2] is over 50 µM. In addition, the CC50 at 72 h in data set [4] is over 100 µM.

On to `Cc1nnn(-c2ccc(Cl)cc2)c1C(=O)N1CCN(c2ccc([N+](=O)[O-])cc2Cl)CC1`, for which the IC50 in the data set on Influenza A virus [2] is over 50 µM. This molecule showed a CC50 at 72 h in data set [4] of over 100 µM.

Consider `COc1cccc(-n2nnc(C)c2C(=O)N2CCN(c3ccc([N+](=O)[O-])cc3Cl)CC2)c1`, for which the IC50 with Influenza A virus [2] was determined as 13.8 µM. In addition, the CC50 at 72 h in data set [4] was over 100 µM.

`COc1ccccc1-n1nnc(C)c1C(=O)N1CCCN(c2ccc([N+](=O)[O-])cc2Cl)CC1`: the IC50 with Influenza A virus [2] is over 50 µM. Moreover, in data set [4], the CC50 at 72 h was over 100 µM.

Regarding `Cc1ccccc1-n1nnc(C)c1C(=O)N1CCN(c2ccc([N+](=O)[O-])cc2Cl)CC1`, in the data set on Influenza A virus [2], the IC50 came to 4.92 µM. This molecule came in with a CC50 at 72 h in data set [4] of over 100 µM.

As to `Cc1nnn(-c2ccccc2OC(C)C)c1C(=O)N1CCN(c2ccc([N+](=O)[O-])cc2Cl)CC1`, in the data set on Influenza A virus [2], the IC50 was determined as 16.2 µM. In [4], this molecule registered a CC50 at 72 h of over 100 µM.

For the molecule `COc1ccccc1-c1onc(C)c1C(=O)N1CCN(c2ccc([N+](=O)[O-])cc2Cl)CC1`, the 50% inhibitory concentration (IC50) in the data set on Influenza A virus [2] was 2.62 µM.

Turning to `COc1cccc(OC)c1-n1nnc(C)c1C(=O)N1CCN(c2ccc([N+](=O)[O-])cc2Cl)CC1`, the IC50 with Influenza A virus [2] stood at 2.42 µM. In addition, in data set [4], the CC50 at 72 h is over 100 µM.

For the molecule `COc1ccccc1-c1ccccc1C(=O)N1CCN(c2ccc([N+](=O)[O-])cc2Cl)CC1`, the IC50 with Influenza A virus [2] was 3.68 µM.

On to `Cc1[nH]nc(-c2ccccc2Cl)c1C(=O)N1CCN(c2ccc([N+](=O)[O-])cc2Cl)CC1`, for which, in the data set on Influenza A virus [2], the IC50 was 2.87 µM.

`Cc1noc(-c2ccccc2)c1C(=O)N1CCN(c2ccc([N+](=O)[O-])cc2Cl)CC1`: the IC50 in the data set on Influenza A virus [2] was found to be 6 µM.

Take `NC12CC3CC(CC(C3)C1)C2` [AMANTADINE]: the IC50 in the data set with Influenza A virus [2] was 2.22 µM. The CC50 at 72 h in [4] was over 100 µM.

As for `Cc1nnn(-c2ccccc2)c1C(=O)N1CCN(c2ccc([N+](=O)[O-])cc2Cl)CC1`, the IC50 with Influenza A virus [2] was found to be 5.16 µM. Further, the CC50 at 72 h in data set [4] was over 100 µM.

With `COc1ccccc1-n1nnc(C)c1C(=O)N1CCN(c2ccccc2Cl)CC1`, the IC50 with Influenza A virus [2] is over 50 µM. Besides, in data set [4], the CC50 at 72 h is over 100 µM.

For `COc1ccccc1-n1nnc(C)c1C(=O)N1CCN(c2ccc([N+](=O)[O-])cc2)CC1`, in the data set with Influenza A virus [2], the IC50 is over 50 µM. Also, the CC50 at 72 h in data set [4] was over 100 µM.

For the molecule `CC(=O)c1ccccc1-n1nnc(C)c1C(=O)N1CCN(c2ccc([N+](=O)[O-])cc2Cl)CC1`, the IC50 in the data set on Influenza A virus [2] came out at 14.8 µM. This molecule came in with a CC50 at 72 h in data set [4] of over 100 µM.

Take `Cc1nnn(-c2cccc(Cl)c2)c1C(=O)N1CCN(c2ccc([N+](=O)[O-])cc2Cl)CC1`: the IC50 with Influenza A virus [2] came out at 9.38 µM. For the same molecule, the CC50 at 72 h in [4] is over 100 µM.

With `Cc1[nH]nc(-c2ccccc2)c1C(=O)N1CCN(c2ccc([N+](=O)[O-])cc2Cl)CC1`, in the data set on Influenza A virus [2], the IC50 was found to be 8.64 µM.

With `Cc1nnn(-c2ccccc2Cl)c1C(=O)N1CCN(c2ccc([N+](=O)[O-])cc2Cl)CC1`, in the data set on Influenza A virus [2], the IC50 was found to be 5.65 µM. Further, the CC50 at 72 h in data set [4] was over 100 µM.

On to `Cc1nnn(-c2ccccc2O)c1C(=O)N1CCN(c2ccc([N+](=O)[O-])cc2Cl)CC1`, for which, in the data set with Influenza A virus [2], the IC50 came out at 7.84 µM. Besides, the CC50 at 72 h in [4] is over 100 µM.

Take `COc1ccccc1-n1nnc(C)c1C(=O)N1CCN(c2ccc([N+](=O)[O-])cc2Cl)CC1`: the IC50 with Influenza A virus [1] is 1.86 µM; with Influenza A virus [2] it was 1.97 µM; in the data set with Influenza A virus [3], 0.9 µM; with Influenza A virus [5], over 50 µM; with Influenza A virus [6], 0.66 µM; in the data set with Influenza A virus [7], 1.17 µM. Besides, the results for the IC50 in the data set on Influenza A virus [8] and in the data set on Influenza A virus [9] were 4.62 µM and 0.52 µM, respectively. Moreover, the CC50 at 72 h in data set [4] is over 100 µM. Also, the inhibition result with Influenza A virus [10] was “Active”.

As to `CCOc1ccccc1-n1nnc(C)c1C(=O)N1CCN(c2ccc([N+](=O)[O-])cc2Cl)CC1`, the IC50 with Influenza A virus [2] is 8.97 µM. In addition, the CC50 at 72 h in data set [4] was over 100 µM.
